US10513519B2, “Solid forms of (1S,4S)-4-(2-(((3S,4R)-3-fluorotetrahydro-2H-pyran-4-yl)amino)-8-((2,4,6-trichlorophenyl)amino)-9H-purin-9-yl)-1-methylcyclohexane-1-carboxamide and methods of their use” (Signal Pharmaceuticals, LLC, priority 2016, dated 2019)
Like-named read-outs stand apart in the source and are kept apart here.

How the values were obtained:
[1] = test system: BRAF mutant and beta-catenin mutant or active cancer cell lines; assay: Anti-proliferative and apoptotic activity in BRAF mutant and beta-catenin mutant or active cancer cell lines; type: cell-based; settings: for IC50: read-out: Proliferation IC50
Description: Anti-proliferative and apoptotic activity in BRAF mutant and beta-catenin mutant or active cancer cell lines. The mutation status of BRAF, CTNNB1, KRAS, and EGFR in five cell lines evaluated was based on public data (COSMIC and CCLE) and confirmed internally. β-catenin status was evaluated using TOP Flash reporter system by transient transfection. A cell line was defined as β-catenin active if a ratio of Top Flash reporter over Fop Flash reporter is greater than 2. N/A: Not available. Transfection efficiency in Colo 205 (BRAF V600E) was too low to access its β-catenin activity using this approach. Antiproliferative and apoptotic activity of Compound 1 in the five cell lines were measured as described above.

[2] = test system: DUSP4, DUSP6, SPRY2, c-Myc, cyclin D1, Axin2, CTGF, AREG mRNA in Colo 205 (BRAF V600E); assay: Quantitative PCR (Cell-To-CT kit) in Colo 205; type: cell-based
Description: The ability of Compound 1 to inhibit MAPK signaling was assessed by determining the DUSP4 and DUSP6 protein expression. Colon cancer cell line Colo 205 (BRAF V600E) cultures were treated with DMSO or increasing concentrations of Compound 1 for 2, 8 or 24 h. Proteins were extracted from treated cells and analyzed by Western blot using antibodies against DUSP4, DUSP6, cyclin D1, c-Myc, YAP or β-actin. RNAs were extracted using Cell-To-CT kit and quantitative PCR was performed with probes specific for DUSP4, DUSP6, SPRY2, c-Myc and cyclin D1. Specific probes for β-actin were used for normalization.
Cellular activity against beta-catenin and YAP target genes by Compound 1 was evaluated. Colon cancer cell line Colo 205 (BRAF V600E) cultures were treated with DMSO or increasing concentrations of Compound 1 for 2, 8 or 24 h. RNAs were extracted using Cell-To-CT kit and quantitative PCR was performed with probes specific for Axin2, CTGF, and AREG. Specific probes for β-actin were used for normalization.
Compound 1 modulation of MAPK, WNT/β-catenin, and Hippo/YAP pathway genes was evaluated by real-time (RT)-qPCR. […], SW48, and Colo-205 cells were plated in 96-well plates at a density of 20,000 cells per well and were allowed to attach overnight. Compound 1 was added to cells at half log concentrations from 1 nM to 10 μM for durations of 2, 8, and 24 hours. Cells were harvested using the TaqMan Gene Expression Cells-to-CT Kit according to the product manual. Next, RT-PCR was performed and the resulting cDNA was used in qPCR reactions on the ViiA7 Real-Time PCR System (Thermo Fisher Scientific). TaqMan probes were used to monitor changes in DUSP4, DUSP6, SPRY2, MYC, CCND1, AXIN2, CTGF, Cyr61, AREG, and ACTB genes. All genes were normalized to ACTB expression and reported as percentage of DMSO-only control.

[3] = test system: IL-2 and IFNγ production by PBMC-derived T cells; assay: Co-culture of compound-treated KARPAS-299 cells with SEB-stimulated PBMC: IL-2 and IFNγ; type: cell-based, human; settings: SEB 20 ng/ml, treated KARPAS-299 cells co-cultured with PBMC
Description: To determine if Compound 1 down-regulation of PD-L1 enhances T cell activation, compound-treated KARPAS-299 cancer cells were co-cultured with PBMC-derived T cells stimulated with low concentrations of super antigen (SEB). KARPAS-299 cells were treated with DMSO (D) or Compound 1 at indicated concentrations for 48 h. PBMC from healthy donors were treated with or without 20 ng/ml SEB for 48 h. After wash with PBS, the PBMCs were incubated with the cancer cells for 24 h and the supernatants were collected to measure IL-2 and IFNγ using Mesoscale assays.

[4] = test system: IL-8 in PBMC culture media; assay: IL-8 levels in PBMC culture media; type: cell-based, human; settings: 0.5 μM, different time-points
Description: The effect of Compound 1 treatment on levels of IL-8 was determined in PBMC culture media. PBMCs were isolated from whole blood and cultured in RPMI media plus 10% FBS. PBMCs were plated at 1×10^6 per milliliter in 10 cm^2 dishes. The PBMCs were treated with 0.1% DMSO or 0.5 μM Compound 1. Treatments were taken down at the designated time points. The culture media (1 mL) was used for IL-8 analysis. The IL-8 analysis was performed with a Mesoscale V-Plex Human IL-8 kit according to the manufacturer's instructions.

SW48 xenograft = assay: β-catenin mutant SW48 colorectal xenograft model; type: in vivo, SCID mice
Excerpt: Female SCID mice were inoculated with 2×10^6 SW48 tumor cells into the right flank. Mice were randomized into treatment groups (n=10/group) at the time of treatment initiation. Test article treatment started on Day 10 when the tumors were approximately 110 and 105 mm^3. (FIGS. 202A-202B) Black dotted line is the tumor volume at the initiation of dosing. Graph on the left is a dose-response study. Graph on the right is a time to progression study where animals were maintained on drug during the course of the study. Dotted line is the tumor volume on Day 28 when the vehicle control group was terminated.

[5] = test system: Hep3B2.1-7 orthotopic xenograft; assay: Orthotopic Hep3B2.1-7 hepatocellular carcinoma xenograft; type: in vivo, SCID mice
Description: Female SCID mice were orthotopically inoculated with 2×10^6 Hep3B2.1-7 tumor cells per animal. Seven days post-inoculation the animals were randomized into treatment groups based on body weight and the treatment commenced (Study day 0). Take rate assessment of a satellite group confirmed the presence of tumor in the liver in 100% of the animals. Treatment with Compound 1 was started and Compound 1 was dosed orally, QD for 21 days. […] On the day of study termination, the tumors were removed and weighed. Individual tumor weights and the mean tumor weight±SEM of each group was plotted (FIG. 203). Percent inhibition was calculated relative to the vehicle control. P values were derived from a one-way ANOVA with a Dunnet's post-hoc analysis. ***=p<0.001.

[6] = AGS, Gastric, CTNNB1 (G43E), KRAS (G12D), β-catenin active

C[C@]1(C(N)=O)CC[C@@H](n2c(Nc3c(Cl)cc(Cl)cc3Cl)nc3cnc(N[C@@H]4CCOC[C@H]4F)nc32)CC1 [Compound 1, cis-4-[2-{[(3S,4R)-3-fluorooxan-4-yl]amino}-8-(2,4,6-trichloroanilino)-9H-purin-9-yl]-1-methylcyclohexane-1-carboxamide]
proliferation and apoptosis in BRAF mutant and beta-catenin mutant or active cancer cell lines [1]: potently inhibits proliferation and induces apoptosis
Apoptosis induction CalX2 [1, 6]: 0.004 ± 0.002 µM
IC50 [1, 6]: 28 nM
IC50 ([1]; Homo sapiens, Colo 205, CRC, BRAF (V600E)): 36 nM
IC50 ([1]; Homo sapiens, Hep3B, HCC, β-catenin active): 14 nM
IC50 ([1]; Homo sapiens, LOX-IMVI, Melanoma, BRAF (V600E), β-catenin inactive): 25 nM
IC50 ([1]; Homo sapiens, SW48, CRC, CTNNB1 (S33Y), EGFR (G179S), β-catenin active): 9 nM
Axin2 RNA ([2]; Colo 205): increased Axin2 RNA
expression of Hippo/YAP target genes (CTGF, AREG) ([2]; Colo 205, 2, 8 and 24 hr): significantly reduced
SPRY2 transcription ([2]; Colo 205, 2, 8 or 24 h): reduction of SPRY2 transcription in a concentration-dependent manner
IL-2 and IFNγ production [3]: increased levels of both IL-2 and IFNγ production
IL-8 levels [4]: inhibit IL-8 levels
antitumor activity (SW48 xenograft): Significant antitumor activity
body weight ([5]; 15 mg/kg, orally, QD for 21 days): minimal body weight loss
body weight ([5]; 30 mg/kg, orally, QD for 21 days): significant mean body weight gain
tumor weight compared to vehicle controls ([5]; orally, QD for 21 days): statistically significant reduction in tumor weight
antitumor activity ([5]; orthotopic Hep3B, hepatocellular): Significant antitumor activity
